In PubChem BioAssay (NCI):
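Interpolation was linear, between the two tested concentrations surrounding the appropriate level; five concentrations were tested over 48 hours in 96-well plates. GI50 = concentration required for 50% inhibition of growth. TGI marks complete inhibition of growth.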

Legend:
Assay in all cases: NCI tumour cell line growth inhibition, 48 h
786-0 renal = test system: 786-0 renal
A498 renal = test system: A498 renal
MDA-MB-435 = test system: MDA-MB-435
SW-620 colon = test system: SW-620 colon
EKVX NSCLC = test system: EKVX NSCLC
SF-295 CNS = test system: SF-295 CNS
LOX IMVI melanoma = test system: LOX IMVI melanoma
HL-60(TB) leukemia = test system: HL-60(TB) leukemia
HCT-116 colon = test system: HCT-116 colon
CAKI-1 renal = test system: CAKI-1 renal
K-562 leukemia = test system: K-562 leukemia
SR leukemia = test system: SR leukemia
HOP-92 NSCLC = test system: HOP-92 NSCLC
NCI/ADR-RES ovarian = test system: NCI/ADR-RES ovarian
BT-549 breast = test system: BT-549 breast
HCT-15 colon = test system: HCT-15 colon
UACC-62 melanoma = test system: UACC-62 melanoma
SNB-75 CNS = test system: SNB-75 CNS
KM12 colon = test system: KM12 colon
NCI-H226 lung = test system: NCI-H226 lung
SK-MEL-2 melanoma = test system: SK-MEL-2 melanoma
SK-OV-3 ovarian = test system: SK-OV-3 ovarian
SF-539 CNS = test system: SF-539 CNS
SF-268 CNS = test system: SF-268 CNS
MOLT-4 leukemia = test system: MOLT-4 leukemia
COLO 205 colon = test system: COLO 205 colon
PC-3 prostate = test system: PC-3 prostate
M14 melanoma = test system: M14 melanoma

Q: `CCCCC(OC(=O)c1ccc(N)cc1)C(=O)Nc1nc(CC(=O)OCC)cs1` (stereo not given) was tested. Which TGI (786-0 renal) did it give?
A: > 100 µM

Q: What about the GI50 (A498 renal) of the same compound?
A: 57.4 µM

Q: What about the TGI (A498 renal) of the same compound?
A: > 100 µM

Q: What about the GI50 (MDA-MB-435) of the same compound?
A: 35 µM

Q: And the TGI (MDA-MB-435)?
A: > 100 µM

Q: And the GI50 (SW-620 colon)?
A: 48 µM

Q: And the TGI (SW-620 colon)?
A: > 100 µM

Q: What about the GI50 (EKVX NSCLC) of the same compound?
A: 38 µM

Q: And the TGI (EKVX NSCLC)?
A: > 100 µM

Q: And the GI50 (SF-295 CNS)?
A: 32.3 µM

Q: What about the TGI (SF-295 CNS) of the same compound?
A: > 100 µM

Q: What about the GI50 (LOX IMVI melanoma) of the same compound?
A: 39 µM

Q: And the TGI (LOX IMVI melanoma)?
A: > 100 µM

Q: And the GI50 (HL-60(TB) leukemia)?
A: 35.1 µM

Q: What about the TGI (HL-60(TB) leukemia) of the same compound?
A: 95.1 µM

Q: And the GI50 (HCT-116 colon)?
A: 37.3 µM

Q: What about the TGI (HCT-116 colon) of the same compound?
A: > 100 µM

Q: And the GI50 (CAKI-1 renal)?
A: 39.1 µM

Q: What about the TGI (CAKI-1 renal) of the same compound?
A: > 100 µM

Q: And the GI50 (K-562 leukemia)?
A: 32.8 µM

Q: And the TGI (K-562 leukemia)?
A: > 100 µM

Q: What about the GI50 (SR leukemia) of the same compound?
A: 42.8 µM

Q: What about the TGI (SR leukemia) of the same compound?
A: > 100 µM

Q: And the GI50 (HOP-92 NSCLC)?
A: 37.5 µM

Q: What about the TGI (HOP-92 NSCLC) of the same compound?
A: > 100 µM

Q: And the GI50 (NCI/ADR-RES ovarian)?
A: 33.9 µM

Q: What about the TGI (NCI/ADR-RES ovarian) of the same compound?
A: > 100 µM

Q: And the GI50 (BT-549 breast)?
A: 34.5 µM

Q: And the TGI (BT-549 breast)?
A: > 100 µM

Q: And the GI50 (HCT-15 colon)?
A: 40.2 µM

Q: What about the TGI (HCT-15 colon) of the same compound?
A: > 100 µM

Q: What about the GI50 (UACC-62 melanoma) of the same compound?
A: 51.6 µM

Q: And the TGI (UACC-62 melanoma)?
A: > 100 µM

Q: What about the GI50 (SNB-75 CNS) of the same compound?
A: 35.2 µM

Q: What about the TGI (SNB-75 CNS) of the same compound?
A: > 100 µM

Q: And the GI50 (KM12 colon)?
A: 41.4 µM

Q: What about the TGI (KM12 colon) of the same compound?
A: > 100 µM

Q: And the GI50 (NCI-H226 lung)?
A: 43.5 µM

Q: What about the TGI (NCI-H226 lung) of the same compound?
A: > 100 µM

Q: What about the GI50 (SK-MEL-2 melanoma) of the same compound?
A: 25.7 µM

Q: What about the TGI (SK-MEL-2 melanoma) of the same compound?
A: 77.4 µM

Q: What about the GI50 (SK-OV-3 ovarian) of the same compound?
A: 29.1 µM

Q: And the TGI (SK-OV-3 ovarian)?
A: > 100 µM

Q: And the GI50 (SF-539 CNS)?
A: 33.1 µM

Q: And the TGI (SF-539 CNS)?
A: > 100 µM

Q: What about the GI50 (SF-268 CNS) of the same compound?
A: 43.5 µM

Q: What about the TGI (SF-268 CNS) of the same compound?
A: > 100 µM

Q: And the GI50 (MOLT-4 leukemia)?
A: 35.8 µM

Q: And the TGI (MOLT-4 leukemia)?
A: > 100 µM

Q: And the GI50 (COLO 205 colon)?
A: 31.6 µM

Q: And the TGI (COLO 205 colon)?
A: > 100 µM

Q: And the GI50 (PC-3 prostate)?
A: 42.4 µM

Q: And the TGI (PC-3 prostate)?
A: > 100 µM

Q: And the GI50 (M14 melanoma)?
A: 32.8 µM

Q: What about the TGI (M14 melanoma) of the same compound?
A: > 100 µM
